Results: the NIST ThermoML archive (doi:10.1016/j.jct.2007.07.002)
± gives the expanded uncertainty stated by the source.

Conditions: Gas, double Helmholtz acoustic resonator

SMILES: N [ammonia]
- kinematic viscosity (300 K, 223.53 kPa): 6.47e-06 ± 1.4e-07 m2/s
- speed of sound (300 K, 223.53 kPa): 431 ± 0.26 m/s
- kinematic viscosity (300 K, 259.87 kPa): 5.47e-06 ± 3.2e-07 m2/s
- speed of sound (300 K, 259.87 kPa): 429.55 ± 0.26 m/s
- kinematic viscosity (300 K, 329.51 kPa): 4.32e-06 ± 5.2e-08 m2/s
- speed of sound (300 K, 329.51 kPa): 428.07 ± 0.26 m/s
- kinematic viscosity (300 K, 361.99 kPa): 3.95e-06 ± 7.2e-08 m2/s
- speed of sound (300 K, 361.99 kPa): 426.77 ± 0.26 m/s
- kinematic viscosity (300 K, 447.86 kPa): 3.14e-06 ± 3.8e-08 m2/s
- speed of sound (300 K, 447.86 kPa): 424.67 ± 0.26 m/s
- kinematic viscosity (300 K, 465.77 kPa): 3.02e-06 ± 5.4e-08 m2/s
- speed of sound (300 K, 465.77 kPa): 423.73 ± 0.26 m/s
- kinematic viscosity (300 K, 568.68 kPa): 2.45e-06 ± 2.9e-08 m2/s
- speed of sound (300 K, 568.68 kPa): 421.02 ± 0.25 m/s
- kinematic viscosity (300 K, 569.79 kPa): 2.45e-06 ± 4.4e-08 m2/s
- speed of sound (300 K, 569.79 kPa): 420.63 ± 0.25 m/s
- kinematic viscosity (300 K, 676.75 kPa): 2.03e-06 ± 2.4e-08 m2/s
- speed of sound (300 K, 676.75 kPa): 417.61 ± 0.25 m/s
- kinematic viscosity (300 K, 692.8 kPa): 1.98e-06 ± 5.6e-08 m2/s
- speed of sound (300 K, 692.8 kPa): 416.7 ± 0.25 m/s
- kinematic viscosity (300 K, 802.37 kPa): 1.71e-06 ± 2.6e-08 m2/s
- speed of sound (300 K, 802.37 kPa): 413.01 ± 0.25 m/s
- kinematic viscosity (300 K, 802.82 kPa): 1.7e-06 ± 2e-08 m2/s
- speed of sound (300 K, 802.82 kPa): 413.38 ± 0.25 m/s
- kinematic viscosity (315 K, 250.83 kPa): 6.41e-06 ± 7.8e-08 m2/s
- speed of sound (315 K, 250.83 kPa): 441.42 ± 0.27 m/s
- kinematic viscosity (315 K, 378.83 kPa): 4.19e-06 ± 6.8e-08 m2/s
- speed of sound (315 K, 378.83 kPa): 438.52 ± 0.26 m/s
- kinematic viscosity (315 K, 506.43 kPa): 3.08e-06 ± 3.7e-08 m2/s
- speed of sound (315 K, 506.43 kPa): 435.46 ± 0.26 m/s
- kinematic viscosity (315 K, 661.04 kPa): 2.34e-06 ± 2.8e-08 m2/s
- speed of sound (315 K, 661.04 kPa): 431.69 ± 0.26 m/s
- kinematic viscosity (315 K, 791.02 kPa): 1.92e-06 ± 2.3e-08 m2/s
- speed of sound (315 K, 791.02 kPa): 428.35 ± 0.26 m/s
- kinematic viscosity (315 K, 938.74 kPa): 1.59e-06 ± 1.9e-08 m2/s
- speed of sound (315 K, 938.74 kPa): 424.43 ± 0.26 m/s
- kinematic viscosity (315 K, 1080.9 kPa): 1.36e-06 ± 1.6e-08 m2/s
- speed of sound (315 K, 1080.9 kPa): 420.46 ± 0.25 m/s
- kinematic viscosity (315 K, 1285 kPa): 1.13e-06 ± 1.4e-08 m2/s
- speed of sound (315 K, 1285 kPa): 414.39 ± 0.25 m/s
- kinematic viscosity (330 K, 308.27 kPa): 5.77e-06 ± 1.5e-07 m2/s
- speed of sound (330 K, 308.27 kPa): 450.9 ± 0.27 m/s
- kinematic viscosity (330 K, 473.84 kPa): 3.68e-06 ± 4.4e-08 m2/s
- speed of sound (330 K, 473.84 kPa): 447.68 ± 0.27 m/s
- kinematic viscosity (330 K, 664.29 kPa): 2.58e-06 ± 3.1e-08 m2/s
- speed of sound (330 K, 664.29 kPa): 443.84 ± 0.27 m/s
- kinematic viscosity (330 K, 822.59 kPa): 2.06e-06 ± 2.5e-08 m2/s
- speed of sound (330 K, 822.59 kPa): 440.54 ± 0.27 m/s
- kinematic viscosity (330 K, 977.41 kPa): 1.71e-06 ± 2.1e-08 m2/s
- speed of sound (330 K, 977.41 kPa): 437.21 ± 0.26 m/s
- kinematic viscosity (330 K, 1142.1 kPa): 1.44e-06 ± 1.7e-08 m2/s
- speed of sound (330 K, 1142.1 kPa): 433.54 ± 0.26 m/s
- kinematic viscosity (330 K, 1294.8 kPa): 1.25e-06 ± 1.5e-08 m2/s
- speed of sound (330 K, 1294.8 kPa): 430.01 ± 0.26 m/s
- kinematic viscosity (330 K, 1480.5 kPa): 1.08e-06 ± 1.3e-08 m2/s
- speed of sound (330 K, 1480.5 kPa): 425.54 ± 0.26 m/s
- kinematic viscosity (330 K, 1640.8 kPa): 9.57e-07 ± 1.2e-08 m2/s
- speed of sound (330 K, 1640.8 kPa): 421.5 ± 0.25 m/s
- kinematic viscosity (330 K, 1792 kPa): 8.66e-07 ± 1e-08 m2/s
- speed of sound (330 K, 1792 kPa): 417.52 ± 0.25 m/s
- kinematic viscosity (330 K, 1945.8 kPa): 7.91e-07 ± 9.5e-09 m2/s
- speed of sound (330 K, 1945.8 kPa): 413.28 ± 0.25 m/s
- kinematic viscosity (345 K, 297.74 kPa): 6.5e-06 ± 7.8e-08 m2/s
- speed of sound (345 K, 297.74 kPa): 461.31 ± 0.28 m/s
- kinematic viscosity (345 K, 504.54 kPa): 3.78e-06 ± 4.5e-08 m2/s
- speed of sound (345 K, 504.54 kPa): 457.91 ± 0.28 m/s
- kinematic viscosity (345 K, 708.88 kPa): 2.67e-06 ± 3.2e-08 m2/s
- speed of sound (345 K, 708.88 kPa): 454.47 ± 0.27 m/s
- kinematic viscosity (345 K, 914.14 kPa): 2.04e-06 ± 2.5e-08 m2/s
- speed of sound (345 K, 914.14 kPa): 450.88 ± 0.27 m/s
- kinematic viscosity (345 K, 1123.2 kPa): 1.64e-06 ± 2e-08 m2/s
- speed of sound (345 K, 1123.2 kPa): 447.09 ± 0.27 m/s
- kinematic viscosity (345 K, 1332.1 kPa): 1.36e-06 ± 1.6e-08 m2/s
- speed of sound (345 K, 1332.1 kPa): 443.17 ± 0.27 m/s
- kinematic viscosity (345 K, 1537 kPa): 1.16e-06 ± 1.4e-08 m2/s
- speed of sound (345 K, 1537 kPa): 439.19 ± 0.26 m/s
- kinematic viscosity (345 K, 1744.6 kPa): 1e-06 ± 1.2e-08 m2/s
- speed of sound (345 K, 1744.6 kPa): 435.01 ± 0.26 m/s
- kinematic viscosity (345 K, 1955.1 kPa): 8.8e-07 ± 1.1e-08 m2/s
- speed of sound (345 K, 1955.1 kPa): 430.58 ± 0.26 m/s
- kinematic viscosity (345 K, 2315.6 kPa): 7.21e-07 ± 8.7e-09 m2/s
- speed of sound (345 K, 2315.6 kPa): 422.55 ± 0.25 m/s
- kinematic viscosity (345 K, 2530 kPa): 6.5e-07 ± 7.8e-09 m2/s
- speed of sound (345 K, 2530 kPa): 417.46 ± 0.25 m/s
- kinematic viscosity (345 K, 2769 kPa): 5.84e-07 ± 7e-09 m2/s
- speed of sound (345 K, 2769 kPa): 411.45 ± 0.25 m/s
- kinematic viscosity (360 K, 242.7 kPa): 8.74e-06 ± 1.1e-07 m2/s
- speed of sound (360 K, 242.7 kPa): 471.71 ± 0.28 m/s
- kinematic viscosity (360 K, 453.28 kPa): 4.68e-06 ± 8.2e-08 m2/s
- speed of sound (360 K, 453.28 kPa): 468.86 ± 0.28 m/s
- kinematic viscosity (360 K, 661.35 kPa): 3.16e-06 ± 3.8e-08 m2/s
- speed of sound (360 K, 661.35 kPa): 465.91 ± 0.28 m/s
- kinematic viscosity (360 K, 865.15 kPa): 2.39e-06 ± 2.9e-08 m2/s
- speed of sound (360 K, 865.15 kPa): 462.91 ± 0.28 m/s
- kinematic viscosity (360 K, 1069.7 kPa): 1.9e-06 ± 2.3e-08 m2/s
- speed of sound (360 K, 1069.7 kPa): 459.84 ± 0.28 m/s
- kinematic viscosity (360 K, 1277.8 kPa): 1.57e-06 ± 1.9e-08 m2/s
- speed of sound (360 K, 1277.8 kPa): 456.62 ± 0.27 m/s
- kinematic viscosity (360 K, 1481.2 kPa): 1.34e-06 ± 1.6e-08 m2/s
- speed of sound (360 K, 1481.2 kPa): 453.38 ± 0.27 m/s
- kinematic viscosity (360 K, 1690.7 kPa): 1.16e-06 ± 1.4e-08 m2/s
- speed of sound (360 K, 1690.7 kPa): 449.97 ± 0.27 m/s
- kinematic viscosity (360 K, 1894.8 kPa): 1.02e-06 ± 1.2e-08 m2/s
- speed of sound (360 K, 1894.8 kPa): 446.53 ± 0.27 m/s
- kinematic viscosity (360 K, 2277.4 kPa): 8.28e-07 ± 9.9e-09 m2/s
- speed of sound (360 K, 2277.4 kPa): 439.83 ± 0.27 m/s
- kinematic viscosity (360 K, 2480.7 kPa): 7.49e-07 ± 9e-09 m2/s
- speed of sound (360 K, 2480.7 kPa): 436.1 ± 0.26 m/s
- kinematic viscosity (360 K, 2738.8 kPa): 6.66e-07 ± 8e-09 m2/s
- speed of sound (360 K, 2738.8 kPa): 431.2 ± 0.26 m/s
- kinematic viscosity (360 K, 3050.5 kPa): 5.85e-07 ± 7e-09 m2/s
- speed of sound (360 K, 3050.5 kPa): 424.97 ± 0.26 m/s
- kinematic viscosity (360 K, 3365.4 kPa): 5.19e-07 ± 6.2e-09 m2/s
- speed of sound (360 K, 3365.4 kPa): 418.3 ± 0.25 m/s
- kinematic viscosity (375 K, 260.57 kPa): 1.01e-05 ± 3.8e-06 m2/s
- speed of sound (375 K, 260.57 kPa): 480.64 ± 1.5 m/s
- kinematic viscosity (375 K, 483.31 kPa): 4.9e-06 ± 8e-07 m2/s
- speed of sound (375 K, 483.31 kPa): 478.26 ± 0.4 m/s
- kinematic viscosity (375 K, 684.74 kPa): 3.42e-06 ± 2.2e-07 m2/s
- speed of sound (375 K, 684.74 kPa): 475.65 ± 0.29 m/s
- kinematic viscosity (375 K, 897.66 kPa): 2.57e-06 ± 6e-08 m2/s
- speed of sound (375 K, 897.66 kPa): 473 ± 0.28 m/s
- kinematic viscosity (375 K, 1130.7 kPa): 1.96e-06 ± 6.8e-08 m2/s
- speed of sound (375 K, 1130.7 kPa): 469.93 ± 0.28 m/s
- kinematic viscosity (375 K, 1341.7 kPa): 1.63e-06 ± 4.2e-08 m2/s
- speed of sound (375 K, 1341.7 kPa): 467.14 ± 0.28 m/s
- kinematic viscosity (375 K, 1583.8 kPa): 1.37e-06 ± 1.6e-08 m2/s
- speed of sound (375 K, 1583.8 kPa): 463.89 ± 0.28 m/s
- kinematic viscosity (375 K, 1793.4 kPa): 1.2e-06 ± 2e-08 m2/s
- speed of sound (375 K, 1793.4 kPa): 461.01 ± 0.28 m/s
- kinematic viscosity (375 K, 2026.3 kPa): 1.04e-06 ± 1.4e-08 m2/s
- speed of sound (375 K, 2026.3 kPa): 457.7 ± 0.28 m/s
- kinematic viscosity (375 K, 2290.4 kPa): 9.12e-07 ± 1.1e-08 m2/s
- speed of sound (375 K, 2290.4 kPa): 453.87 ± 0.27 m/s
- kinematic viscosity (375 K, 2599.9 kPa): 7.94e-07 ± 1.2e-08 m2/s
- speed of sound (375 K, 2599.9 kPa): 449.23 ± 0.27 m/s
- kinematic viscosity (375 K, 2933.1 kPa): 6.9e-07 ± 8.3e-09 m2/s
- speed of sound (375 K, 2933.1 kPa): 444.04 ± 0.27 m/s
- kinematic viscosity (375 K, 3140.5 kPa): 6.38e-07 ± 8.2e-09 m2/s
- speed of sound (375 K, 3140.5 kPa): 440.69 ± 0.27 m/s
- kinematic viscosity (375 K, 3379.2 kPa): 5.88e-07 ± 9e-09 m2/s
- speed of sound (375 K, 3379.2 kPa): 436.74 ± 0.26 m/s
